This experiment has as its target T1, TfCut2 (Thermobifida fusca, UniProt Q6A0I4).
T1 construct: gene cut2; gene without signal peptide from T. fusca KW3 genomic DNA, pET-20b(+) with pelB leader and His6 tag, E. coli BL21(DE3), purified
Description: PET film hydrolysis, released products by RP-HPLC; Lineweaver-Burk slope replot. Format: biochemical. The following applies: amorphous PET film substrate, 0.2 M sodium phosphate pH 8.0, 60 °C, 1 h; MOPS 0.05-0.075 M; competitive. From the text: PET film hydrolysis, released products by RP-HPLC; Lineweaver-Burk slope replot on TfCut2

The source of these data is publication PMC5011490, “Effect of Tris, MOPS, and phosphate buffers on the hydrolysis of polyethylene terephthalate films by polyester hydrolases” (FEBS Open Bio, 2016).

By Ki is commonly meant the equilibrium dissociation constant of an inhibitor or competing ligand from its target.

T1 sequence (Q6A0I4 41-301): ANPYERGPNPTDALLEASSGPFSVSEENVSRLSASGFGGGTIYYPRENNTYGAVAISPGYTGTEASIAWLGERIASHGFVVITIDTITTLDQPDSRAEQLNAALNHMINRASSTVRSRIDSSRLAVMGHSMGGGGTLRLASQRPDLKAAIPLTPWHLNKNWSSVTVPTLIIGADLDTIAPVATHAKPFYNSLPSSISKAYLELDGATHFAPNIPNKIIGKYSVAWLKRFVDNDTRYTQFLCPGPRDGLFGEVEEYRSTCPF

`O=S(=O)(O)CCCN1CCOCC1` [MOPS, 3‐(N‐morpholino)propanesulfonic acid]: the Ki was 80 mM.
